Measured values as given in patent publication US20020001841A1, “CONTINUOUS T-CELL LINES” (priority 1998, published 2002).
Values joined by “and” are separate entries in the source; they are usually repeats but may differ in a detail not shown here. Equal entries are not always repeated.

Key:
[1] = system: gut T-cell cultures from patients with Crohn's disease; assay type: cell-based, human
[2] = system: gut T-cell cultures from patients with Crohn's disease; assay type: cell-based, human; remark: listed apart in the source
transmembrane TNFα = conditions: murine SP2/O myeloma cells with cleavage resistant transmembrane TNFα; Scatchard analyses; cited from earlier work
transmembrane TNFα, sequence (P01375 88-233 limits assumed): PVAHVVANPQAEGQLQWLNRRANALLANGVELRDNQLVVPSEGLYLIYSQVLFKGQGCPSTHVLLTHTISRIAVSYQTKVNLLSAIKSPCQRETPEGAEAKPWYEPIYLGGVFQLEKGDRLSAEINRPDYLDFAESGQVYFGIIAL

[3] = system: activated gut T-lymphocytes in Crohn's disease; assay type: cell-based, human

Infliximab: chimeric TNFα antibody with high avidity for transmembrane TNFα, obtained from Centocor
Amount of propidium iodide and Annexin-FITC positive cells compared with SEA alone [1]: did not increase | Apoptosis (in words) [1]: did not induce any apoptosis | Proliferation rate (in words) [2]: did not change the proliferation rate | Infliximab molecules bound per cell (transmembrane TNFα): about 35000 molecules per cell | 24 hour production of IFNγ (in words) [3]: reduction | Production of IFNγ and TNFα (in words) [3]: reduced | Reduction of IFNγ production by Infliximab [3]: 68% and 43% and 49% and 56% | Reduction of TNFα production by Infliximab [3]: 97%
